From patent EP1634598A1, “Use of piperazine derivatives and analogues for the manufacture of a medicament for the prophylaxis and/or treatment of disorders of food ingestion” (LABORATORIOS DEL DR. ESTEVE, S.A., priority 2004, dated 2006)

Key:
[1] = test system: a selection of other relevant receptors; settings: according to US2003/0171347A1, page 7, table2 and page 8, table 3; cited from earlier work
Obese Rats (DIO) = test: Chronical treatment of obese rats (DIO); assay type: in vivo; settings: 50 mg/Kg i.p., one injection per day for 9 days, followed for 10 more days, compared to Saline, data only in Figures 1 to 4
Method: Obese Rats (DIO) were treated for 9 days intraperitoneally (i.p.) one injection per day with Saline, with BD-1063 at 50 mg/Kg and PRE-084 at 25 mg /Kg, a well known […]. During that time each day and at some points during the following 10 days the weight giving the difference in weight (referring to the day of starting the treatment) was determined, as were the blood glucose levels, blood level of cholesterol, blood level of Triglycerides (TG).

Row | Compound | binding to a selection of other relevant receptors [1] | effect on the weight (in weight difference), blood glucose levels, blood level of cholesterol, blood level of Triglycerides (TG) (Obese Rats (DIO))
1 | CN(C)CCN(C)CCc1ccc(Cl)c(Cl)c1 [BD-1047, N1-(3,4-dichlorophenethyl)-N1,N2,N2-trimethylethane-1,2-diamine] | no or only slight binding | 
2 | CN1CCN(CCc2ccc(Cl)c(Cl)c2)CC1 [BD-1063, 1-(3,4-dichlorophenethyl)-4-methylpiperazine] | no or only slight binding | highly effective
